{"source": "patent US20120171123A1", "about": "“USES AND COMPOSITIONS FOR TREATMENT OF RHEUMATOID ARTHRITIS” (priority 2006, published 2012)", "test_system": "patients with severe, active RA", "assay": "Study 2 / Study 3 OLE (adalimumab monotherapy): FACIT-F fatigue", "assay_type": "in vivo, human", "experimental": "In addition to the SF-36 instrument, the Health Utilities Index Mark 3 (HUI3) and the Functional Assessment of Chronic Illness Therapy-Fatigue (FACIT-F) questionnaires were administered at baseline, 12 weeks, and the end of the study.\nThe HUI3 scale is 0-1, with “1” denoting perfect health and “0” denoting death. FACIT-F scores range from 0-52, with higher scores representing less fatigue. The SF-36 includes one multi-item scale that assesses eight different dimensions of health, including physical and psychosocial components. For each dimension a value of 0-100 is given, with higher numbers representing less impairment. Changes in HUI3 of ≧0.03, in FACIT-F of ≧4 and in SF-36 of ≧4.4 (physical subscales) and ≧3.1 (mental subscales) are considered clinically meaningful.\nAll patients studied had severe, active RA. Patients' fatigue was measured by the FACIT-F, which is validated for RA.\nFACIT-F was administered at baseline, at 1 or 2 time points during the study, and at the end of the study. The questionnaire asked each patient the following “Below is a list of statements that other people with your illness have said are important. By circling one (1) number per line, please indicate how true each statement has been for you during the past 7 days.” The questions in the questionnaire used to determine the FACIT score included the following, where each patient indicated the appropriate number (0-4): I feel fatigued; I feel weak all over; I feel listless (“washed out”); I feel tired; I have trouble starting things because I am tired; I have trouble finishing things because I am tired; I have energy; I am able to do my usual activities; I need to sleep during the day; I am too tired to eat; I need help doing my usual activities; I am frustrated by being too tired to do the things I want to do; I have to limit my social activity because I am tired. FACIT-F scores range from 0-52, with higher scores representing less fatigue. FACIT-F changes of ≧4 are considered clinically meaningful.\nData were obtained from a health economics companion study to a pivotal trial of adalimumab, which rolled over into a long-term, open-label extension (OLE) study. […] Patients' fatigue was measured by the FACIT-F questionnaire. FACIT-F was administered at baseline, and at several time points during the study. FACIT-F scores range from 0-52, with higher scores representing less fatigue. Changes in FACIT-F scores of ≧4 were considered clinically meaningful.\nIn addition to clinical parameters, the SF-36 instrument, the Health Utilities Index Mark 3 (HUI3), and the Functional Assessment of Chronic Illness Therapy-Fatigue (FACIT-F) questionnaires were administered at baseline, and at weeks 12, 26, 50, 74, 98, 122, 146 and 170, respectively. The HUI3 scale ranges from 0-1, with “1” denoting perfect health and “0” denoting death. FACIT-F scores range from 0-52, with higher scores representing less fatigue. SF-36 scores range from 0-100 with higher scores indicating improvement in HRQoL. Changes in HUI3 scores of ≧0.03, 1 FACIT-F scores of ≧4, 2 and individual SF-36 domain scores of 5-103 are considered clinically meaningful.", "note": "Marks after values point to notes of the source that are not given here."}
{"substance": "adalimumab: human anti-TNF mAb (HUMIRA, Abbott Laboratories), described in U.S. Pat. No. 6,090,382 as D2E7", "values": [{"measurement": "FACIT-F change from baseline", "setting": "12 weeks", "value": 7.2}, {"measurement": "mean FACIT-F change from baseline", "setting": "week 26 (6 months), monotherapy", "value": "8.5 b, c"}, {"measurement": "mean FACIT-F change from baseline", "setting": "week 26 (6 months), monotherapy, listed as ada", "value": 8.5}, {"measurement": "mean FACIT-F change from baseline", "setting": "week 50", "value": "7.3 ^b"}, {"measurement": "mean FACIT-F change from baseline", "setting": "week 98", "value": "7.2 ^b"}, {"measurement": "mean FACIT-F change from baseline", "setting": "week 146", "value": "7.1 ^b"}, {"measurement": "mean FACIT-F change from baseline", "setting": "week 170", "value": "7.2 ^b"}]}
